Values of other authors as cited in US12281362B2, “Diagnostic tools and treatments for clear cell renal cell carcinoma” (University of Cincinnati, priority 2020, dated 2025).

Legend:
[1] = clinic
localized RCC = details: adjuvant setting

SMILES	adverse effects [1]	survival (localized RCC)
CCN(CC)CCNC(=O)c1c(C)[nH]c(/C=C2\C(=O)Nc3ccc(F)cc32)c1C [Sunitinib]	serious adverse effects	–
CNC(=O)c1cc(Oc2ccc(NC(=O)Nc3ccc(Cl)c(C(F)(F)F)c3)cc2)ccn1 [sorafenib]	–	did not improve survival
